The text below walks through data of ChEMBL document CHEMBL1137293, “Discovery of oxadiazoyl tertiary carbinamine inhibitors of beta-secretase (BACE-1)” (J Med Chem, 2006).

In this experiment the target is Beta-secretase 1 (Homo sapiens, UniProt P56817). The experiment can be described thus: Inhibition of BACE1.
Sequence of Beta-secretase 1 (P56817 whole entry): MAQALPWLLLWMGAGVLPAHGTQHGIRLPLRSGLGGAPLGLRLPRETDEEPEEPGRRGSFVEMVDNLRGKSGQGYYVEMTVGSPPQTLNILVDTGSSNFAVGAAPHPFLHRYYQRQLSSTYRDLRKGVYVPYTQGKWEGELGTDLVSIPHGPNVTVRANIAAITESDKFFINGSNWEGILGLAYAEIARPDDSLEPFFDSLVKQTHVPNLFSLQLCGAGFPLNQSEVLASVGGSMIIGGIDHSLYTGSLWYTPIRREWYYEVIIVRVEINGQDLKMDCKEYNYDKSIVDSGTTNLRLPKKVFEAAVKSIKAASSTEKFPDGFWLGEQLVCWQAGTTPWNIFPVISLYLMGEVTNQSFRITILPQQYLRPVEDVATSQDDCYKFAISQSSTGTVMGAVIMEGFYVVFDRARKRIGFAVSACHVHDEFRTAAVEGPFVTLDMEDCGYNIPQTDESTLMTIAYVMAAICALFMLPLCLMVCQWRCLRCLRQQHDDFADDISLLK

As to `C[C@@H](NC(=O)c1cc(C2=NC(CO)(Cc3ccccc3)CO2)cc(N(C)S(C)(=O)=O)c1)c1ccc(F)cc1` (stereo not given in full), the midpoint of inhibition, the IC50, lay at 12500 nM.

In the case of `C[C@@H](NC(=O)c1cc(COC(=O)[C@](C)(N)Cc2ccccc2)cc(N(C)S(C)(=O)=O)c1)c1ccc(F)cc1`, the IC50 – broadly, the concentration that inhibits the measured activity by half – worked out at 27 nM.

For `C[C@@H](NC(=O)c1cc(C(=O)NC(CO)(CO)Cc2ccccc2)cc(N(C)S(C)(=O)=O)c1)c1ccc(F)cc1`, the IC50 was 2700 nM.

As to `C[C@@H](NC(=O)c1cc(COC[C@](C)(N)Cc2ccccc2)cc(N(C)S(C)(=O)=O)c1)c1ccc(F)cc1`, the IC50 came to 430 nM.

Regarding `C[C@@H](NC(=O)c1cc(COC[C@@](N)(CO)Cc2ccccc2)cc(N(C)S(C)(=O)=O)c1)c1ccc(F)cc1`, the midpoint of inhibition, the IC50, lay at 1370 nM.
